In experiment [1] the test system is allergen-induced histamine release. The experiment can be described thus: Allergen-induced histamine release from sensitized human tissue. The format is cell-based.
For experiment [2] the test system is unchanged. The experiment can be described thus: Allergen-induced histamine release from sensitized guinea pig tissue. It is filed as cell-based.
Experiment [3] deals with anaphylactic bronchospasm. Description: Inhibition of anaphylactic bronchospasm in sensitized guinea pigs with antigen-induced bronchoconstriction. It is filed as in vivo. To be noted: oral dose of 5 mg/kg. How it is done:
The anti-allergy method of this invention is identified by tests which measure a compound's inhibition of anaphylactic bronchospasm in sensitized guinea pigs having antigen-induced bronchoconstriction. […] The compounds are effective non-adrenergic, non-anticholinergic antianaphylactic agents. When administered orally they are active at doses from about 0.1 to 50 mg/kg of body weight; when administered parenterally, e.g., intravenously, the compounds are active at dosages of from about 0.01 to 5 mg/kg body weight; when administered by inhalation (aerosol or nebulizer) the compounds are active at dosages of about 0.1 to 5 mg per puff, and one to four puffs may be taken every 4 hours.

In the case of `O=C1c2cccnc2N(c2ccccc2)C(=O)C12CCCCO2` (stereo not drawn) [1-phenyl-3',4',5',6'-tetrahydro-spiro[1,8-naphthyridine-3,2'-(2H)pyran]-2,4-dione], the “inhibition of allergen-induced histamine release” value in experiment [1] and in experiment [2] was “inhibit allergen-induced histamine release” in each case. The “inhibition of anaphylactic bronchospasms” value in experiment [3] was “inhibit anaphylactic bronchospasms”.

(Values after patent EP0144996A2, “Substituted spiro pyridine derivatives, pharmaceutical compositions containing them and processes for the preparation of such compounds and compositions” (SCHERING CORPORATION, priority 1983, dated 1985).)
